pEC50, pIC50: −log10 of the molar value.
How the values were obtained:
[1] = Pharmacokinetic (PK) study in rat; conditions: male, Sprague Dawley, in vivo, iv, 6 nmol/kg
[2] = biological target: T1, human GLP-1 receptor (Homo sapiens, UniProt P43220); assay: In vitro potency (CRE luciferase; whole cells); format: cell-based; design: EC50/pM (ratio 1% HSA/0% HSA): unit not given here; conditions: for pEC50: BHK cells; for EC50/pM (ratio 1% HSA/0% HSA): ratio of EC50 at 1% HSA to EC50 at 0% HSA
T1 construct: expressed in transfected cells; host or cells: BHK cells, clone FCW467-12A/KZ10-1 (parent line BHKTS13), further transfected with CRE luciferase
Method in brief: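 Stably transfected BHK cells carrying human GLP-1R and a CRE–firefly luciferase reporter, 5×10^3 cells/well in assay medium, run with 0% or 1% HSA in assay buffer.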

[3] = Pharmacokinetic (PK) study in minipig; conditions: male, Göttingen, in vivo, iv
[4] = biological target: T1, human GLP-1 receptor; assay: GLP-1 receptor binding (SPA, displacement of 125I-GLP-1)
Method in brief: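 Membranes from a stably transfected hamster cell line, 5-10 ug protein/sample, with WGA SPA beads and [125I]-GLP-1(7-36)NH2 at 0.06 nM final. Incubated 120 min at 30 °C with shaking, then counted.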

[5] = system: Landrace Yorkshire Duroc (LYD) pigs; assay: Pharmacodynamic (PD) study in pigs, food intake; format: in vivo, pig; conditions: single s.c. dose 3.0 nmol/kg
Experimental: The purpose of this experiment was to investigate the effect of a couple of Example compounds on food intake in pigs. This was done in a pharmacodynamic (PD) study as described below, in which food intake was measured from 1 to 4 days after administration of a single dose of the GLP-1 derivative, as compared to a vehicle-treated control group.
Female Landrace Yorkshire Duroc (LYD) pigs, approximately 3 months of age, weighing approximately 30-35 kg were used (n=3-4 per group). The animals were housed in a group for approximately 1 week during acclimatisation to the animal facilities. During the experimental period the animals were placed in individual pens at least 2 days before dosing and during the entire experiment for measurement of individual food intake. The animals were fed ad libitum with pig fodder (Svinefoder Danish Top) at all times both during the acclimatisation and the experimental period. Food intake was monitored on line by logging the weight of fodder every 15 minutes. The system used was Mpigwin (Ellegaard Systems, Faaborg, Denmark).
The phosphate buffer serves as vehicle. Animals are dosed with a single subcutaneous dose of the GLP-1 derivative or vehicle (dose volume 0.025 ml/kg) on the morning of day 1, and food intake is measured for 1 day after dosing. On the last day of each study, 1-4 days after dosing, a blood sample for measurement of plasma exposure of the GLP-1 derivative is taken from the heart in anaesthetised animals. The animals are thereafter euthanised with an intra-cardial overdose of pentobarbitone.
Food intake is calculated as mean±SEM food intake in 24 h intervals (0-24 h, 24-48 h, and 48-72 h). In Table 6 below the food intake is indicated as percentage of the food intake of the vehicle group in the same time interval (dosage 3.0 nmol/kg).
Statistical comparisons of the food intake in the 24 h intervals in the vehicle vs. GLP-1 derivative group are done using two-way-ANOVA repeated measures, followed by Bonferroni post-test.

[6] = In vitro potency (CRE luciferase) EC50 (0% HSA), 0% HSA
[7] = Receptor binding affinity IC50 (low HSA), 0.001% HSA (low albumin)
[8] = In vitro potency (CRE luciferase) EC50 (1% HSA), 1% HSA
[9] = Receptor binding affinity IC50 (high HSA), 2.0% HSA (high albumin)

T1 sequence (P43220 24-463): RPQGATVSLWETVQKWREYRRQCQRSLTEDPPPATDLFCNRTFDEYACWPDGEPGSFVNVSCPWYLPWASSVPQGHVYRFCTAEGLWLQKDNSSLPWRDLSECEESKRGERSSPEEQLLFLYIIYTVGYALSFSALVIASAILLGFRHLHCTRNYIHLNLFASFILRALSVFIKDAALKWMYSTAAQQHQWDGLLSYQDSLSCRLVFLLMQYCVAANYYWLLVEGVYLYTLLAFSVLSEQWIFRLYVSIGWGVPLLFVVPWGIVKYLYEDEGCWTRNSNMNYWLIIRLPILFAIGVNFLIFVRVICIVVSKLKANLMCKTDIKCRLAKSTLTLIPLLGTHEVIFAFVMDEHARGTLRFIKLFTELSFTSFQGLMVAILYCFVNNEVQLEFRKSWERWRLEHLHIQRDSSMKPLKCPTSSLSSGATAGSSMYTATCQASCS

SMILES	half-life [1]	pEC50 [2, 6]	EC50/pM (ratio 1% HSA/0% HSA) [2]	half-life [3]	pIC50 [4, 7]	pEC50 [2, 8]	pIC50 [4, 9]	PD in pig, food intake (% of vehicle) for hours 0-24 ([5]; 0-24 h)	PD in pig, food intake (% of vehicle) for hours 24-48 ([5]; 24-48 h)
CC[C@H](C)[C@H](NC(=O)[C@H](Cc1ccccc1)NC(=O)[C@H](CCC(=O)O)NC(=O)[C@H](CCCCNC(=O)[C@@H](N)CCCCNC(=O)COCCOCCNC(=O)COCCOCCNC(=O)CC[C@H](NC(=O)CCCCCCCCCCOc1ccc(C(=O)O)cc1)C(=O)O)NC(=O)[C@H](C)NC(=O)[C@H](C)NC(=O)[C@H](CCC(N)=O)NC(=O)[C@H](CCC(=O)O)NC(=O)[C@H](CCC(=O)O)NC(=O)[C@H](CC(C)C)NC(=O)[C@H](Cc1ccc(O)cc1)NC(=O)[C@H](CO)NC(=O)[C@H](CO)NC(=O)[C@@H](NC(=O)[C@H](CC(=O)O)NC(=O)[C@H](CO)NC(=O)[C@@H](NC(=O)[C@H](Cc1ccccc1)NC(=O)[C@@H](NC(=O)CNC(=O)[C@H](CCC(=O)O)NC(=O)C(C)(C)NC(=O)[C@@H](N)Cc1c[nH]cn1)[C@@H](C)O)[C@@H](C)O)C(C)C)C(=O)N[C@@H](C)C(=O)N[C@@H](Cc1c[nH]c2ccccc12)C(=O)N[C@@H](CC(C)C)C(=O)N[C@H](C(=O)N[C@@H](CCCNC(=N)N)C(=O)NCC(=O)N[C@@H](CCCNC(=N)N)C(=O)N[C@@H](CCCCNC(=O)[C@@H](N)CCCCNC(=O)COCCOCCNC(=O)COCCOCCNC(=O)CC[C@H](NC(=O)CCCCCCCCCCOc1ccc(C(=O)O)cc1)C(=O)O)C(=O)O)C(C)C [Example 22]	15 h	11.26	13	59 h	9.59	–	–	–	–
CC[C@H](C)[C@H](NC(=O)[C@H](Cc1ccccc1)NC(=O)[C@H](CCC(=O)O)NC(=O)[C@H](CCCCNC(=O)[C@H](CCCCNC(=O)[C@H](CCCCNC(=O)CC[C@H](NC(=O)CCCCCCCCCCOc1ccc(C(=O)O)cc1)C(=O)O)N(C)C)N(C)C)NC(=O)[C@H](C)NC(=O)[C@H](C)NC(=O)[C@H](CCC(N)=O)NC(=O)CNC(=O)[C@H](CCC(=O)O)NC(=O)[C@H](CC(C)C)NC(=O)[C@H](Cc1ccc(O)cc1)NC(=O)[C@H](CO)NC(=O)[C@H](CO)NC(=O)[C@@H](NC(=O)[C@H](CC(=O)O)NC(=O)[C@H](CO)NC(=O)[C@@H](NC(=O)[C@H](Cc1ccccc1)NC(=O)[C@@H](NC(=O)CNC(=O)[C@H](CCC(=O)O)NC(=O)C(C)(C)NC(=O)CCc1c[nH]cn1)[C@@H](C)O)[C@@H](C)O)C(C)C)C(=O)N[C@@H](C)C(=O)N[C@@H](Cc1c[nH]c2ccccc12)C(=O)N[C@@H](CC(C)C)C(=O)N[C@H](C(=O)N[C@@H](CCCNC(=N)N)C(=O)NCC(=O)N[C@@H](CCCNC(=N)N)C(=O)N[C@@H](CCCCNC(=O)[C@H](CCCCNC(=O)[C@H](CCCCNC(=O)CC[C@H](NC(=O)CCCCCCCCCCOc1ccc(C(=O)O)cc1)C(=O)O)N(C)C)N(C)C)C(=O)O)C(C)C [Example 29, N^ε26-[(2S)-6-[[(2S)-6-[[(4S)-4-carboxy-4-[11-(4-carboxyphenoxy)undecanoylamino]butanoyl]amino]-2-(dimethylamino)hexanoyl]amino]-2-(dimethylamino)hexanoyl], N^ε37-[(2S)-6-[[(2S)-6-[[(4S)-4-carboxy-4-[11-(4-carboxyphenoxy)undecanoylamino]butanoyl]amino]-2-(dimethylamino)hexanoyl]amino]-2-(dimethylamino)hexanoyl]-[Imp^7,Aib^8,Arg^34,Lys^37]-GLP-1-(7-37)-peptide]	19 h	11.10	–	82 h	9.26	9.37	7.25	–	–
CC[C@H](C)[C@H](NC(=O)[C@H](Cc1ccccc1)NC(=O)[C@H](CCC(=O)O)NC(=O)[C@H](CCCCNC(=O)[C@@H](N)CCCCNC(=O)[C@H](CO)NC(=O)CNC(=O)[C@H](CO)NC(=O)CC[C@H](NC(=O)CCCCCCCCCCCOc1ccc(C(=O)O)cc1)C(=O)O)NC(=O)[C@H](C)NC(=O)[C@H](C)NC(=O)[C@H](CCC(N)=O)NC(=O)CNC(=O)[C@H](CCC(=O)O)NC(=O)[C@H](CC(C)C)NC(=O)[C@H](Cc1ccc(O)cc1)NC(=O)[C@H](CO)NC(=O)[C@H](CO)NC(=O)[C@@H](NC(=O)[C@H](CC(=O)O)NC(=O)[C@H](CO)NC(=O)[C@@H](NC(=O)[C@H](Cc1ccccc1)NC(=O)[C@@H](NC(=O)CNC(=O)[C@H](CCC(=O)O)NC(=O)C(C)(C)NC(=O)[C@@H](N)Cc1c[nH]cn1)[C@@H](C)O)[C@@H](C)O)C(C)C)C(=O)N[C@@H](C)C(=O)N[C@@H](Cc1c[nH]c2ccccc12)C(=O)N[C@@H](CC(C)C)C(=O)N[C@H](C(=O)N[C@@H](CCCNC(=N)N)C(=O)NCC(=O)N[C@@H](CCCNC(=N)N)C(=O)N[C@@H](CCCCNC(=O)[C@@H](N)CCCCNC(=O)[C@H](CO)NC(=O)CNC(=O)[C@H](CO)NC(=O)CC[C@H](NC(=O)CCCCCCCCCCCOc1ccc(C(=O)O)cc1)C(=O)O)C(=O)O)C(C)C [Example 24]	–	–	37	123 h	–	9.90	6.87	73 % of vehicle	73 % of vehicle
CC[C@H](C)[C@H](NC(=O)[C@H](Cc1ccccc1)NC(=O)[C@H](CCC(=O)O)NC(=O)[C@H](CCCCNC(=O)[C@@H](N)CCCCNC(=O)[C@@H](N)CCCCNC(=O)CC[C@H](NC(=O)CCCCCCCCCCCOc1ccc(C(=O)O)cc1)C(=O)O)NC(=O)[C@H](C)NC(=O)[C@H](C)NC(=O)[C@H](CCC(N)=O)NC(=O)CNC(=O)[C@H](CCC(=O)O)NC(=O)[C@H](CC(C)C)NC(=O)[C@H](Cc1ccc(O)cc1)NC(=O)[C@H](CO)NC(=O)[C@H](CO)NC(=O)[C@@H](NC(=O)[C@H](CC(=O)O)NC(=O)[C@H](CO)NC(=O)[C@@H](NC(=O)[C@H](Cc1ccccc1)NC(=O)[C@@H](NC(=O)CNC(=O)[C@H](CCC(=O)O)NC(=O)C(C)(C)NC(=O)[C@@H](N)Cc1c[nH]cn1)[C@@H](C)O)[C@@H](C)O)C(C)C)C(=O)N[C@@H](C)C(=O)N[C@@H](Cc1c[nH]c2ccccc12)C(=O)N[C@@H](CC(C)C)C(=O)N[C@H](C(=O)N[C@@H](CCC(N)=O)C(=O)NCC(=O)N[C@@H](CCCNC(=N)N)C(=O)N[C@@H](CCCCNC(=O)[C@@H](N)CCCCNC(=O)[C@@H](N)CCCCNC(=O)CC[C@H](NC(=O)CCCCCCCCCCCOc1ccc(C(=O)O)cc1)C(=O)O)C(=O)O)C(C)C [Example 9, N^ε26-[(2S)-2-amino-6-[[(2S)-2-amino-6-[[(4S)-4-carboxy-4-[12-(4-carboxyphenoxy)dodecanoylamino]butanoyl]amino]hexanoyl]amino]hexanoyl], N^ε37-[(2S)-2-amino-6-[[(2S)-2-amino-6-[[(4S)-4-carboxy-4-[12-(4-carboxyphenoxy)dodecanoylamino]butanoyl]amino]hexanoyl]amino]hexanoyl]-[Aib^8,Gln^34,Lys^37]-GLP-1-(7-37)-peptide]	20 h	–	72	72 h	–	–	–	–	–

Reference: patent publication US10604554B2, “Double-acylated GLP-1 derivatives” (Novo Nordisk A/S, priority 2012, dated 2020)
